The text below walks through data of patent publication US10947275B2, “Caged cell penetrating peptide-polymer conjugates for diagnostic and therapeutic applications” (Ben-Gurion University of the Negev Research and Development …, priority 2010, dated 2021).

For one data set, the system named is B16 cells. Description: Caging of CPP activity via reversible electrostatic interactions with polyanions, flow cytometry. The data set is classed as cell-based. As to conditions: for mean fluorescence intensity of HPMA-CPP-FITC after pre-treatment with polyanion (masking of CPP activity): polyanion mixed with HPMA-CPP-FITC for 10 min, versus conjugate alone. The method, then:
FIG. 7A-FIG. 7D depict FACS analysis results of B-16 cells incubated with HPMA-CPP-FITC conjugate mixed with different polyanions (Hep, FI, PGA, HA, P-GG, LMWH, Amb) for 10 min, and then added to B16-cell monolayers. Control cells were treated with HPMA-CPP-FITC conjugate only. FIG. 7A depicts results of B-16 cells incubated with HPMA-CPP-FITC conjugate mixed with Hep or FI. FIG. 7B depicts results of B-16 cells incubated with HPMA-CPP-FITC conjugate mixed with PGA or HA. FIG. 7C depicts results of B-16 cells incubated with HPMA-CPP-FITC conjugate mixed with P-GG or LMWH. FIG. 7D depicts results of B-16 cells incubated with HPMA-CPP-FITC conjugate mixed with Amb.
FIG. 8A-FIG. 8D depict FACS analysis results of stability testing of HPMA-CPP-FITC polyanion complexes incubated with B-16 cells at different time points. FIG. 8A depicts results of B-16 cells incubated with a complex of HPMA-CPP-FITC and the polyanion Hep. FIG. 8B depicts results of B-16 cells incubated with a complex of HPMA-CPP-FITC and the polyanion FI. FIG. 8C depicts results of B-16 cells incubated with a complex of HPMA-CPP-FITC and the polyanion LMWH. FIG. 8D depicts results of B-16 cells incubated with a complex of HPMA-CPP-FITC and the polyanion Amb.
FIG. 9A-FIG. 9D depict the reversible masking of CPP activity by polyanion complexes via the addition of protamine. FIG. 9A depicts the reversible masking of CCP activity by polyanion complexes comprising the polyanion fucoidan via the addition or protamine. FIG. 9B depicts the reversible masking of CCP activity by polyanion complexes comprising the polyanion LMWH via the addition or protamine. FIG. 9C depicts the reversible masking of CCP activity by polyanion complexes comprising the polyanion Heparin via the addition or protamine. FIG. 9D depicts the reversible masking of CCP activity by polyanion complexes comprising the polyanion P-GG-OH via the addition or protamine.
FIG. 10 depicts FACS analysis results of polyanion release from HPMA-CPP-FITC complexes by protamine was at the following order: LMWH>P-GG100%>Fl>Hep.
HPMA-CPP-FITC conjugate was mixed with various polyanions such as Polyglutamic acid (PGA); Fucoidan (FI); Heparin sulfate (Hep) Hyaluronic acid (HA); Low molecular weight heparin (LMWH), Amberlite IR120 (Amb) or Polyglycylglycine (P-GG) at a weight ratio of 3:1 or 5:1 in PBS. The solutions were left for 10 min at room temperature to allow HPMA-CPP-FITC-polyanion complex formation, and then added to B16 cell monolayers in growth medium The reversibility of masking the CPP activity in complexes was assessed following the addition of the counter polycation, protamine to the incubation medium. B16 cells were treated with HPMA-CPP-FITC-polyanion complexes for 10 min, and then the counter polycation protamine (4.7 KDa, 10-50 μg/ml, at the same weight ratio of HPMA conjugate) was added to the cells. Control cells were treated with HPMA-CPP-FITC-polyanion complexes without protamin. After 1 h, the cells were washed with PBS, harvested with trypsin and the cell associated fluorescence was analyzed by flow cytometry.
HPMA-CPP-FITC conjugate was mixed with different polyanions (Hep, FI, PGA, HA, P-GG, LMWH, Amb) and then added to B16-cell monolayers and compared to control cells treated with HPMA-CPP-FITC conjugate alone (FIGS. 7A-7D).
The masking of CPP activity by the polyanion complexes was readily reversible following the addition of the polycation, protamine (4.7 KD) (FIGS. 9A-9D). Greater intensity is readily seen in protamine treated (black lines) versus untreated (gray lines) samples.
The efficiency of polyanion release from HPMA-CPP-FITC complexes by protamine was at the following order: LMWH>P-GG100%>FI>Hep (corresponding to outermost versus innermost graphs) (FIG. 10).
A general note: A flow cytometer gives signals particle by particle.

Another data set relates to PC-3 cells. The data set is described as follows: Light-mediated cytotoxicity, MTT assay, illumination time and dose dependence. In kind it is cell-based. As to conditions: 80 μM dose (or equivalent dose of M-(cCPP)-KLAK), 15 min of light illumination. The method, then: FIG. 6A depicts illumination time-dependence and dose-dependence of the viability of PC-3 cells incubated with 80 μM (solid blue), 40 μM (dashed blue), 20 μM (dots blue) M-(cCPP)-KLAK (KLAK equiv), 80 μM KLAK (solid green), and 80 μM M-(cCPP) (solid red), as determined by MIT assay. The results presented are the average of 3 independent experiments, in duplicates. Untreated control cells corresponded to 100% viability. FIG. 6B depicts light-induced cell cytotoxicity of polymer-KLAK conjugates and free KLAK against various cell-types including A431 cells (top left graph), PC-3 cells (top right graph), 3LL cells (bottom left graph) and SW480 cells (bottom right graph). Cells were incubated with 60 μM KLAK equivalent M-(cCPP)-KLAK (dark column), M-(cCPP) (gray column) or 60 μM KLAK (white column) and were illuminated immediately with UV light (365 nm) for 8 minutes followed by 2 hours incubation at 37° C. Cell viability was analyzed by MIT assay.
The cytotoxicity of M-cCPP-KLAK, M-cCPP and o(KIAKLAK) (SEQ ID NO: 5)2, was assessed using a modified 3-(4,5-dimethylthiazol-2-yl)-2,5-diphenyltetrazolinium bromide (MTT). All concentrations of KLAK-HPMA copolymers used for these experiments are expressed in KLAK equivalents. All solutions were sterilized by filtering through a 0.2-μm membrane filter. […] The absorbance of each sample was measured at 570 nm. […]

Data set [1] in a line: Uncaging kinetics of cCPP under UV illumination, HPLC. In kind it is physicochemical. As to conditions: cCPP 200 μM, 8 minutes UV illumination (700 μW/cm2; λ=365 nm), HPLC-UV 230 nm. Here is the method: FIG. 2 depicts the uncaging kinetics of cCPP as a function of light illumination time (365 nm) as determined with HPLC.
Uncaging kinetics of cCPP. cCPP (200 μM) was dissolved in 100 μL MOPS buffer at pH=7.4 and exposed to UV light illumination (UV lamp 6 W; =365 nm). Aliquots (30 μL) were removed at various time points, immediately kept frozen, in dark until analyzed by HPLC. The molar fraction of cCPP was calculated from its HPLC peak area.
CPP with 3 Mtt-protected Lys, Ac-KRRMK^MttWK^MttK^Mtt (KRRMKWKXK SEQ ID NO: 6) was synthesized on a solid phase via Fmoc chemistry on a MBHA Resin. CPP was then modified to include 3 photolabile protecting groups on Lys side chains to give the caged CPP (cCPP), Ac-KRRMK^NvocWK^NvocK^Nvoc. The identity and purity (>90%) were determined by HPLC and MALDI-TOF mass spectrometer. In order to study the uncaging kinetics of the peptide, a solution of cCPP (200 μM) was exposed to UV light illumination (700 μW/cm2; λ=365 nm). Aliquots were removed at various time points, and then evaluated by high performance liquid chromatography with UV detection (HPLC-UV) at 230 nm. The molar fraction of cCPP was calculated from its HPLC peak (FIG. 2). 8 minutes of illumination were sufficient to attain >80% of uncaged CPP, and thus further experiments were therefore undertaken with 8-10 min of light illumination. […]

Turning to Low molecular weight heparin [LMWH], in the data set with B16 cells, the “mean fluorescence intensity of HPMA-CPP-FITC after pre-treatment with polyanion (masking of CPP activity)” value is on record as “significantly reduced” and the “order of efficiency of polyanion release from HPMA-CPP-FITC complexes by protamine” value is on record as “LMWH>P-GG100%>FI>Hep”.
For the substance Levulinic acid-D(KLAKLAK)2, the “toxicity towards PC-3 cells” value in the data set on PC-3 cells is recorded as “no significant toxicity”.
Turning to Ac-KRRMK^NvocWK^NvocK^Nvoc [cCPP], in data set [1], the “uncaged CPP attained” value is on record as more than 80%.
Consider Fucoidan [FI], for which, in the data set with B16 cells, the “mean fluorescence intensity of HPMA-CPP-FITC after pre-treatment with polyanion (masking of CPP activity)” value was “significantly reduced” and the “order of efficiency of polyanion release from HPMA-CPP-FITC complexes by protamine” value is given as “LMWH>P-GG100%>FI>Hep”.
In the same order, the values of Heparin sulfate are “significantly reduced” and “LMWH>P-GG100%>FI>Hep”.
